One assay relates to MCF-7. Briefly: Cell viability assay (MTS), antiproliferative activity. Type of assay: cell-based. Particulars: Homo sapiens, MCF7, 72 h. How it is done: (§1) To preliminarily profile the bioactivity of these compounds, we adopted a streamlined approach which involved screening against KDM6A at two concentrations and evaluating antiproliferative activity against three representative cell lines – MCF-7 (ER(+) BCa), MDA-MB-231 (TNBC BCa) and Vero (a non-transformed cell line as control).
(§2) The In vitro proliferation assay was performed as reported previously[15],[16]. Detailed description of the protocol used is included in the Supplementary Information.
(§3) Cell Viability Assay. All cell lines were purchased form ATCC (Manassas, VA), and they were routinely cultured in different media recommended by the supplier. MCF-7 cells were cultured in non-phenol red DMEM (Corning, Manassas, VA) fortified with 10% charcoal treated fetal bovine serum (FBS; Atlanta Biologicals, GA) and 0.2 mM glutamine (Corning, Manassas, VA), whereas MDA-MB-231, DU-145, and Vero were cultured in DMEM with 10% FBS. […] After 24 h incubation in 37 °C under 5% CO2, cells were treated with serially diluted ligands with final DMSO concentration of 1% and incubated for additional 72 h. MTS (CellTiter 96 Aqueous One Solution Cell Proliferation Assays, Promega, Madison, WI) was added to each well 2.5 h prior to recording the absorbance at 490 nm.

For a further assay, the system named is MDA-MB-231. Described as above. It is filed as cell-based. The settings on record: Homo sapiens, 72 h. How it is done: as §1, §2, §3
The subject of a further assay is VERO. The description is as above. The settings on record: Chlorocebus sabaeus, 72 h. It is filed as cell-based. How it is done:
as §1, §2, §3

The target of the next assay is T1, KDM6A (UTX) (Homo sapiens, UniProt O15550).
T1 construct: purchased BPS Bioscience
As to the kind of experiment: KDM cell-free assay (AlphaScreen, BPS Bioscience). It is filed as biochemical. Particulars: for IC50: Fig. 9A, read-out: IC50 (KDM6A inhibition dose response curve).

The mark [1] stands for this setting: Table 5, values calculated by linear regression.

Each structure is given as a SMILES string. Where only a bound is given, the exact number is not on record here.

T1 sequence (O15550 whole entry): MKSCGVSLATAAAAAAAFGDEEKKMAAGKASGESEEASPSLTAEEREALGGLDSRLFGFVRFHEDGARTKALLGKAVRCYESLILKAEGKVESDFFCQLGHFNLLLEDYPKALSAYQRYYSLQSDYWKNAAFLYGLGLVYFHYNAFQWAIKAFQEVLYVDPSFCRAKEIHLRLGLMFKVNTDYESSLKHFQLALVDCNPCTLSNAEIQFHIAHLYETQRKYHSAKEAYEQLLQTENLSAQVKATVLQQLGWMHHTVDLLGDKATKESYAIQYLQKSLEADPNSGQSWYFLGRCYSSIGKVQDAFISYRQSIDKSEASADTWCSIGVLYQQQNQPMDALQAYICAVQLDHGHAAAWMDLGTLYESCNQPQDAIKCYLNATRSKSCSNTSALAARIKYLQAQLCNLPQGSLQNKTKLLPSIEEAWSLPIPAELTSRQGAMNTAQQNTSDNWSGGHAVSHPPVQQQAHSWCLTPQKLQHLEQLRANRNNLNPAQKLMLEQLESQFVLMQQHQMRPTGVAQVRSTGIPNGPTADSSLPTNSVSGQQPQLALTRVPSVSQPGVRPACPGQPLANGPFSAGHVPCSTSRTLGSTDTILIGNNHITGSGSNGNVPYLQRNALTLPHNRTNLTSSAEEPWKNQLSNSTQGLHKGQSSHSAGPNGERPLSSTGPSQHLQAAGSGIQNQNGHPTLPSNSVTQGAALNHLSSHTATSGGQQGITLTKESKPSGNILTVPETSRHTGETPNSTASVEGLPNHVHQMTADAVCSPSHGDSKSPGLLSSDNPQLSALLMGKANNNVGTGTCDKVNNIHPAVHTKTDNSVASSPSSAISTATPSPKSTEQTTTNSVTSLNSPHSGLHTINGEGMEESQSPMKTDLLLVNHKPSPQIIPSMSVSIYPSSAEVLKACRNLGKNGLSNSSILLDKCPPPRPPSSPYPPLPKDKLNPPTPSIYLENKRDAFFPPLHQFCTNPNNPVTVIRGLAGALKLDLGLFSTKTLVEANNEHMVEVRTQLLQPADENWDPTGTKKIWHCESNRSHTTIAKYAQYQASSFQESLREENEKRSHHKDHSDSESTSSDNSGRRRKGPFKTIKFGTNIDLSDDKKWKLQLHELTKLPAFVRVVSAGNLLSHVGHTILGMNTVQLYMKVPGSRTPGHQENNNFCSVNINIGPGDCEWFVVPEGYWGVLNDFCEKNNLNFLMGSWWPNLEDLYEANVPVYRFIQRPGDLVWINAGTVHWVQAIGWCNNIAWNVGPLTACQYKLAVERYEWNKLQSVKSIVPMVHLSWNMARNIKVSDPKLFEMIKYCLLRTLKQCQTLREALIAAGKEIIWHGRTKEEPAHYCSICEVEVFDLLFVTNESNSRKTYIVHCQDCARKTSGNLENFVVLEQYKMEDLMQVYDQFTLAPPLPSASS

In general, IC50 refers to the midpoint of a concentration-inhibition curve. As to `Cc1c(O)c(=O)ccn1CCCCn1cc(-c2ccc(N(C)C)cc2)nn1` [2q], the half-maximal inhibitory concentration (IC50) was more than 50 µM with MCF-7 (Table 5), 9.5 µM with MDA-MB-231 (Table 5) and more than 50 µM with VERO (Table 5).
Broadly, the inhibition is the relative decrease from the control value, in per cent. A high value points to strong suppression. `Cc1ccc(-c2cn(CCCCn3ccc(=O)c(O)c3C)nn2)cc1` [2e] gave an inhibition at 1 µM against KDM6A (UTX) (Table 2) of 13%. The same compound showed an inhibition at 10 µM against KDM6A (UTX) (Table 2) of 100%. Besides, the results for the IC50 in the assay with MCF-7 (Table 5), in the assay with MDA-MB-231 (Table 5) and with VERO (Table 5) were more than 50 µM, 7.4 µM and 4.1 µM, respectively.
`COc1ccccc1-c1cn(CCCCn2ccc(=O)c(O)c2C)nn1` [2g]: the results for the IC50 in the assay on MCF-7 (setting [1]), with MDA-MB-231 (Table 5) and in the assay on VERO (Table 5) were 66.1 µM, 9.6 µM and more than 50 µM, respectively.
On to `Cc1c(O)c(=O)ccn1CCCCCn1ccc(=O)c(O)c1C` [3b], for which the inhibition at 1 µM at KDM6A (UTX) (Table 3) turned out to be 1%. Moreover, the inhibition at 10 µM against KDM6A (UTX) (Table 3) worked out at 99%. Further, the half-inhibitory concentration (IC50) with MCF-7 (Table 6), in the assay on MDA-MB-231 (Table 6) and with VERO (Table 6) was more than 50 µM throughout.
For the compound `Cc1c(O)c(=O)ccn1CCCCCn1cc(-c2ccc(N(C)C)cc2)nn1` [2r], the IC50 is more than 50 µM with MCF-7 (Table 5), 12.5 µM in the assay with MDA-MB-231 (Table 5) and more than 50 µM with VERO (Table 5).
As to `Cc1cccc(-c2cn(CCCCCn3ccc(=O)c(O)c3C)nn2)c1` [2d], the concentration for half-maximal inhibition (IC50) was more than 50 µM in the assay on MCF-7 (Table 5), 11.8 µM in the assay with MDA-MB-231 (Table 5) and 3.6 µM in the assay with VERO (Table 5).
The like results for `COc1ccc(-c2cn(CCCCn3ccc(=O)c(O)c3C)nn2)cc1` [2k] were, in that order, more than 50 µM, 8.1 µM and more than 50 µM.
Turning to `Cc1cccc(-c2cn(CCCCn3ccc(=O)c(O)c3C)nn2)c1` [2c], the inhibition at 1 µM at KDM6A (UTX) (Table 2) was 4%. On KDM6A (UTX) (Table 2), this compound returned an inhibition at 10 µM of 100%. The IC50 was 62.7 µM in the assay with MCF-7 (setting [1]), 10.9 µM with MDA-MB-231 (Table 5) and 5.2 µM in the assay with VERO (Table 5).
Taken in the same sequence, the figures for `Cc1ccccc1-c1cn(CCCCn2ccc(=O)c(O)c2C)nn1` [2a] were 6%, 100%, 42.5 µM, 16.4 µM and 11.6 µM.
Consider `Cc1c(O)c(=O)ccn1CCCCCCn1cc(-c2ccc(-c3ccncc3)cc2)nn1` [2u], for which the inhibition at 1 µM against KDM6A (UTX) (Table 2) amounted to 15%. Moreover, the inhibition at 10 µM against KDM6A (UTX) (Table 2) is 99%. Further, the IC50 is 5.1 µM at KDM6A (UTX), more than 50 µM in the assay on MCF-7 (Table 5), 1.7 µM in the assay on MDA-MB-231 (Table 5) and 66.9 µM in the assay on VERO (Table 5).
Compound `Cc1c(O)c(=O)ccn1CCCCCCn1cc(-c2ccccc2)nn1` [1e] gave an inhibition at 1 µM at KDM6A (UTX) (Table 2) of 12%. At 10 µM the inhibition against KDM6A (UTX) (Table 2) was 98%. In addition, the values for the IC50 in the assay with MCF-7 (Table 4), in the assay on MDA-MB-231 (Table 4) and in the assay with VERO (Table 4) were more than 50 µM, 12.5 µM and more than 35 µM, respectively.
In turn, `Cc1c(O)c(=O)ccn1CCCCCn1cc(-c2ccccn2)nn1` [2s] had an inhibition at 1 µM on KDM6A (UTX) (Table 2) of 15%. The compound also showed an inhibition at 10 µM at KDM6A (UTX) (Table 2) of 99%. Besides, the concentration for half-maximal inhibition (IC50) in the assay on MCF-7 (Table 5), in the assay with MDA-MB-231 (Table 5) and in the assay with VERO (Table 5) was more than 50 µM in each case.
The compound `Cc1c(O)c(=O)ccn1CCCCCn1cc(-c2ccccc2C(F)(F)F)nn1` [2p] came in with an inhibition at 1 µM against KDM6A (UTX) (Table 2) of 15%. On KDM6A (UTX) (Table 2), this compound returned an inhibition at 10 µM of 99%. The IC50 is more than 50 µM in the assay on MCF-7 (Table 5), 18.8 µM with MDA-MB-231 (Table 5) and 13.3 µM in the assay on VERO (Table 5).
For the compound `Cc1ccccc1-c1cn(CCCCCn2ccc(=O)c(O)c2C)nn1` [2b], the IC50 was more than 50 µM with MCF-7 (Table 5), 12.7 µM in the assay on MDA-MB-231 (Table 5) and 5.8 µM in the assay with VERO (Table 5).
As to `Cc1c(O)c(=O)ccn1CCCCCn1cc(-c2cccc(F)c2)nn1` [2n], at 1 µM the inhibition on KDM6A (UTX) (Table 2) was 5%. For the same compound, the inhibition at 10 µM against KDM6A (UTX) (Table 2) is 100%. Also, the values for the IC50 in the assay on MCF-7 (Table 5), with MDA-MB-231 (Table 5) and in the assay on VERO (Table 5) were more than 50 µM, 6.8 µM and 22.9 µM, respectively.
The like results for `Cc1c(O)c(=O)ccn1CCCCCn1cc(-c2ccccc2F)nn1` [2m] were, in that order, 16%, 100%, more than 50 µM, 18.3 µM and 12.7 µM.
On KDM6A (UTX) (Table 3), `Cc1c(O)c(=O)ccn1Cc1ccc(Cn2ccc(=O)c(O)c2C)cc1` [3f] displayed an inhibition at 1 µM of 5%. The inhibition at 10 µM at KDM6A (UTX) (Table 3) turned out to be 100%. Moreover, the IC50 in the assay on MCF-7 (Table 6, values calculated by linear regression) is 378 µM; in the assay with MDA-MB-231 (Table 6), 25 µM; in the assay with VERO (Table 6), more than 50 µM.
`COc1ccc(-c2cn(CCCCCn3ccc(=O)c(O)c3C)nn2)cc1` [2l] registered an inhibition at 1 µM at KDM6A (UTX) (Table 2) of 4%. At KDM6A (UTX) (Table 2), this compound came in with an inhibition at 10 µM of 100%. The IC50 was more than 50 µM in the assay on MCF-7 (Table 5), 9.6 µM in the assay on MDA-MB-231 (Table 5) and more than 50 µM with VERO (Table 5).
On to `COc1cccc(-c2cn(CCCCn3ccc(=O)c(O)c3C)nn2)c1` [2i], for which testing at 1 µM against KDM6A (UTX) (Table 2) gave an inhibition of 7%. Further, testing at 10 µM against KDM6A (UTX) (Table 2) gave an inhibition of 100%. Also, the IC50 in the assay with MCF-7 (setting [1]) was 54.8 µM; with MDA-MB-231 (Table 5), 7.5 µM; with VERO (Table 5) it was more than 50 µM.
On to `Cc1c(O)c(=O)ccn1CCCCCn1cc(-c2ccc(F)cc2)nn1` [2o], for which the inhibition at 1 µM at KDM6A (UTX) (Table 2) is 10%. On KDM6A (UTX) (Table 2), this compound yielded an inhibition at 10 µM of 100%. The 50% inhibitory concentration (IC50) was more than 50 µM with MCF-7 (Table 5), 3.6 µM in the assay with MDA-MB-231 (Table 5) and 38.8 µM with VERO (Table 5).
`Cc1c(O)c(=O)ccn1CCCCCCn1ccc(=O)c(O)c1C` [3c]: the inhibition at 1 µM against KDM6A (UTX) (Table 3) was 2%. The same compound gave an inhibition at 10 µM on KDM6A (UTX) (Table 3) of 100%. The IC50 in the assay on MCF-7 (Table 6), with MDA-MB-231 (Table 6) and in the assay on VERO (Table 6) was more than 50 µM throughout.
In turn, `COc1ccccc1-c1cn(CCCCCn2ccc(=O)c(O)c2C)nn1` [2h] gave an inhibition at 1 µM on KDM6A (UTX) (Table 2) of 3%. For the same compound, testing at 10 µM on KDM6A (UTX) (Table 2) gave an inhibition of 99%. The figures for the IC50 with MCF-7 (Table 5), with MDA-MB-231 (Table 5) and in the assay with VERO (Table 5) were more than 50 µM, 19.1 µM and more than 50 µM, respectively.
Take `Cc1c(O)c(=O)ccn1CCCCn1ccc(=O)c(O)c1C` [3a]: the inhibition at 1 µM against KDM6A (UTX) (Table 3) was determined as 4%. On KDM6A (UTX) (Table 3), this compound had an inhibition at 10 µM of 100%. For the same compound, the concentration for half-maximal inhibition (IC50) with MCF-7 (Table 6), with MDA-MB-231 (Table 6) and with VERO (Table 6) was more than 50 µM in each case.
On to `Cc1c(O)c(=O)ccn1[C@H]1CC[C@H](n2ccc(=O)c(O)c2C)CC1` [3e], for which the inhibition at 1 µM on KDM6A (UTX) (Table 3) came out at 5%. The inhibition at 10 µM on KDM6A (UTX) (Table 3) turned out to be 100%. Besides, the IC50 in the assay with MCF-7 (Table 6) is more than 50 µM; in the assay with MDA-MB-231 (Table 6), 36.9 µM; in the assay on VERO (Table 6), more than 50 µM.
`Cc1c(O)c(=O)ccn1CCCCCn1cc(-c2ccccc2)nn1` [1d] registered an inhibition at 1 µM at KDM6A (UTX) (Table 2) of 12%. The compound further had an inhibition at 10 µM at KDM6A (UTX) (Table 2) of 100%. For the same compound, the half-maximal inhibitory concentration (IC50) is 3.3 µM on KDM6A (UTX), more than 50 µM in the assay on MCF-7 (Table 4), 11.4 µM in the assay on MDA-MB-231 (Table 4) and more than 50 µM with VERO (Table 4).
In the case of `Cc1c(O)c(=O)ccn1CCCCCCCn1ccc(=O)c(O)c1C` [3d], at 1 µM the inhibition on KDM6A (UTX) (Table 3) was 3%. In addition, testing at 10 µM at KDM6A (UTX) (Table 3) gave an inhibition of 100%. For the same compound, the 50% inhibitory concentration (IC50) in the assay on MCF-7 (Table 6), in the assay with MDA-MB-231 (Table 6) and in the assay with VERO (Table 6) was more than 50 µM throughout.

The values are drawn from paper PMC6423038, “Deferiprone: Pan-selective Histone Lysine Demethylase Inhibition Activity and Structure Activity Relationship Study” (Scientific Reports, 2019).
